# Experiments:
# [1] = tested on: HCC827GR cells; experiment: IC50 analysis via alamarBlue assay, HCC827GR versus HCC827; assay type: cell-based
# [2] = tested on: HCC827GR/tet-on control cells; experiment: Xenograft assay with doxycycline; assay type: in vivo, nude mice; conditions: daily oral Dox for 30 days
# Description: FIG. 13 illustrates VGF as a therapeutic target. (FIG. 13A) Q-PCR (left) analysis for VGF expression and clonogenic assay (right) in HCC827GR/tet-on control cells. […] (FIG. 13B) Xenograft assay for assessing the effect of doxycycline treatment on tumor growth. HCC827GR/tet-on control cells were injected subcutaneously into nude mice. 32 days after cancer cell injection, mice were treated with or without daily oral doxycycline (Dox) for another 30 days. Tumor volume was monitored over time as indicated (left). Tumor weight was measured after harvest (upper right). The representative photographs illustrate tumor growth 30 days after Dox or normal saline treatment (lower right). ns means no significant (n=6 mice/group). (FIG. 13C) Q-PCR (left) analysis for VGF expression and clonogenic assay (right) in HCC827GR/tet-on shVGF cells in which shVGF was induced by doxycycline (Dox). […] HCC827GR/tet-on-shVGF cells were injected subcutaneously into nude mice. 32 days after cancer cell injection, mice were treated with or without daily oral doxycycline (Dox) for another 30 days. Tumor volume was monitored over time as indicated (left). Tumor weight was measured after harvest (upper right). The representative photographs illustrate tumor growth 30 days after Dox or normal saline treatment (lower right). Scale bar, 1 mm. Error bars indicate the SEM (n=6 mice/group; *P<0.05). […]
# [3] = tested on: lung adenocarcinoma harboring EGFR mutations (exon 19 deletions or the L858R mutation); conditions: References 5 to 10; cited from earlier work
# [4] = tested on: HCC827GR cells; experiment: Western blot of apoptosis markers (activated caspase 3, cleaved PARP); assay type: cell-based; conditions: gefitinib 1 μM, 24 hr
# [5] = tested on: HCC827GR cells infected with shVGF; experiment: alamarBlue cell viability assay after VGF knockdown; assay type: cell-based; conditions: HCC827GR cells with VGF-silencing, gefitinib 3 days, FIG. 3F
# From the text: FIG. 3 illustrates expression of VGF in EGFR-TKI resistant lung cancer cells. […] Tubulin served as a loading control. (FIG. 3B) Q-PCR analysis (left) for measuring the expression of VGF in HCC827GR-2, an independently selected EGFR-TKI resistant HCC827 pool, versus and HCC827 cells. Tubulin served as a loading control. Gene expression analysis (right) for VGF expression in HCC827 and EGFR-TKI resistant clones (ER3 and T15-2) from the database of GSE38310. (FIG. 3C) Gene expression analysis for VGF expression in different subtypes of lung cancer cell lines from the database of […] (CCLE). SCLC: small cell lung cancer; ADC: adenocarcinoma; SCC: squamous cell carcinoma. […] (FIG. 3E) Q-PCR analysis (left) and western blotting (right) for measuring VGF expression in HCC827GR cells infected with lentiviral vectors encoding shVGF (shVGF) or scrambled control (SC). shVGF#1 and shVGF#2 target different regions in VGF mRNA.
# To identify genes involved in EGFR-TKI resistance and EMT in lung adenocarcinoma, a gene expression profiling assay followed by Q-PCR analysis were performed in HCC827GR versus HCC827 cells (FIG. 3A, upper). […] . […] Consistently, the expression of VGF was elevated in the independently isolated TKI resistance HCC827 cells (FIGS. 3B and 10). […] The inventors further examined VGF levels in cell lines derived from different subtypes of lung cancer. […] .
# [6] = tested on: HEK293T cells; experiment: Clonogenic analysis of VGF mutants under low serum stress; assay type: cell-based; conditions: transfected HEK293T cells, DMEM with 1% FBS, 10 days
# From the text: FIG. 18 illustrates effect of VGF mutants on low serum stress. (FIG. 18A) Schematic representation of VGF deletion mutations (FIG. 18B) A table summarizing clonogenic analysis of HEK293T cells transfected with expression vector encoding empty control (Ctrl), full-length VGF cDNA (VGF), or truncated VGF cDNA as described in the FIG. 18A under the growth of DMEM supplement with 1% FBS for 10 days.
# The effect of VGF mutants on low serum stress was examined (FIG. 18). Clonogenic analysis of HEK293T cells transfected with expression vector encoding empty control, full-length VGF cDNA, or truncated VGF cDNA under the growth of DMEM supplement with 1% FBS for 10 days were summarized in FIG. 18B.
molecule,measurement,setting,value
C=CC(=O)Nc1cc(Nc2nccc(-c3cn(C)c4ccccc34)n2)c(OC)cc1N(C)CCN(C)C [AZD9291],IC50 analysis (EGFR-TKI resistance),[1],resistance
"C[C@H]1c2cccc(O)c2C(=O)C2=C(O)[C@]3(O)C(=O)C(C(N)=O)=C(O)[C@@H](N(C)C)[C@@H]3[C@@H](O)[C@@H]21 [Dox, doxycycline]",tumor growth,[2],no effect
C#Cc1cccc(Nc2ncnc3cc(OCCOC)c(OCCOC)cc23)c1 [erlotinib],therapeutic response,[3],profound therapeutic responses
COc1cc2ncnc(Nc3ccc(F)c(Cl)c3)c2cc1OCCCN1CCOCC1 [gefitinib],expression of activated caspase 3 and PARP (apoptosis),[4],resistant to gefitinib-induced apoptosis
same,cell viability (sensitivity to gefitinib),[5],sensitive
"VGF 1-615: full length VGF, expressed from full-length VGF cDNA vector (protein, UniProt O15240 1-615, looked up, full-length, full length VGF, expressed from full-length VGF cDNA vector) MKALRLSASALFCLLLINGLGAAPPGRPEAQPPPLSSEHKEPVAGDAVPGPKDGSAPEVRGARNSEPQDEGELFQGVDPRALAAVLLQALDRPASPPAPSGSQQGPEEEAAEALLTETVRSQTHSLPAPESPEPAAPPRPQTPENGPEASDPSEELEALASLLQELRDFSPSSAKRQQETAAAETETRTHTLTRVNLESPGPERVWRASWGEFQARVPERAPLPPPAPSQFQARMPDSGPLPETHKFGEGVSSPKTHLGEALAPLSKAYQGVAAPFPKARRPESALLGGSEAGERLLQQGLAQVEAGRRQAEATRQAAAQEERLADLASDLLLQYLLQGGARQRGLGGRGLQEAAEERESAREEEEAEQERRGGEERVGEEDEEAAEAEAEAEEAERARQNALLFAEEEDGEAGAEDKRSQEETPGHRRKEAEGTEEGGEEEDDEEMDPQTIDSLIELSTKLHLPADDVVSIIEEVEEKRKRKKNAPPEPVPPPRAAPAPTHVRSPQPPPPAPAPARDELPDWNEVLPPWDREEDEVYPPGPYHPFPNYIRPRTLQPPSALRRRHYHHALPPSRHYPGREAQARRAQEEAEAEERRLQEQEELENYIEHVLLRRP",cell survival in clonogenic analysis,[6],survived

# Reference: patent US20180100153A1, “Method and kit for use in inhiiting tumor progression, predicting or determining tumor progression state in VGF expressing cancers” (Truebio LLC, priority 2016, published 2018)
